Reference: patent publication US20210238136A1, “AZETIDINE DERIVATIVE, AND PRODRUG THEREOF” (DAIICHI SANKYO COMPANY, LIMITED, priority 2018, published 2021)
Where a name gives a salt, the structure may show the parent alone.

Tested on: activated T cells (CD4+ T cells from mouse spleen)
Assay: 3H-thymidine uptake in activated T cells
Format: cell-based, mouse (C57BL/6J)
Details: T-cell; mouse spleen CD4+ T cells activated with Dynabeads Mouse T-Activator CD3/CD28; read-out: IC50 (3H-thymidine uptake, proliferation of activated T cells)
Protocol: Effect of Test Substance on ^3H-Thymidine Uptake in Activated T Cells
The effect of test substance on ^3H-thymidine uptake by activation was evaluated using T cells from mouse spleen. The spleen was removed from euthanized C57BL/6J mice, and finely sliced, then triturated on a cell strainer (40 μm mesh), and cells were collected by centrifugation. The collected splenocytes were treated with Cold lyser containing 0.17 M NH4Cl for 5 minutes to hemolytically remove red blood cells and then washed. The resulting cells were used as the splenocytes. From the splenocytes, CD4+ T cells were isolated using an EasySep Mouse CD4+ T cell isolation kit (STEMCELL Technologies Inc.). The CD4+ T cells were seeded into 96-well round-bottom plates. To the plates, test substance or Vehicle was added, and Dynabeads Mouse T-Activator CD3/CD28 (Thermo Fisher Scientific Inc.) was added, then the cells were cultured at 37° C. under 5% CO2. After 24 hours of culture, ^3H-Thymidine (PerkinElmer Inc.) diluted with medium was added to each well, then the cells were further cultured at 37° C. under 5% CO2 overnight. To measure ^3H-Thymidine uptake into the nuclei of the cells, the cells were collected into filter plates UniFilter-96 GF/B (PerkinElmer Inc.) using a FilterMate Universal Harvester (PerkinElmer Inc.). The filter plates were placed in a dryer and left still for 2 hours or more. Then, scintillation cocktail MicroScint-O (PerkinElmer Inc.) was added to the plates, and radioactivity was measured with TopCount NXT (PerkinElmer Inc.). With the radioactivity of the test substance-free group set as 100% and the radioactivity of the non-activation group as 0%, the relative value (proliferation rate, % of vehicle) of the radioactivity of each well to which test substance was added was calculated. The value of % of vehicle was incorporated into analysis software Prism (Version 5.0, GraphPad Software), the “Nonlinear Regression Log (inhibitor) vs Reaction Variable Inclination” was selected, and then sigmoid fitting with restrictions of Bottom=0 and Top=100 was performed to calculate 50% inhibitory concentration (IC50).

| SMILES | IC50 [nM] |
| --- | --- |
| N[C@@H](Cc1cccc(S(=O)(=O)N2CC(Oc3ccccc3)(C3CC3)C2)c1)C(=O)O [Example 31] | 210 |
| N#Cc1ccccc1OC1(c2ccccc2)CN(S(=O)(=O)c2cccc(C[C@H](N)C(=O)O)c2)C1 [Example 18, (S)-2-Amino-3-(3-((3-(2-cyanophenoxy)-3-phenylazetidin-1-yl)sulfonyl)phenyl)propanoic acid] | 2.9 |
| N[C@@H](Cc1cccc(S(=O)(=O)N2CC(Oc3ccccc3Br)(c3ccccc3)C2)c1)C(=O)O [Example 5, (S)-2-Amino-3-(3-((3-(2-bromophenoxy)-3-phenylazetidin-1-yl)sulfonyl)phenyl)propanoic acid] | 3.2 |
| N#Cc1ccc(OC2(c3ccccc3)CN(S(=O)(=O)c3cccc(C[C@H](N)C(=O)O)c3)C2)cc1 [Example 40] | 2.2 |
| N[C@@H](Cc1cccc(S(=O)(=O)N2CC(Oc3ccc(F)cc3)(c3ccc(F)cc3)C2)c1)C(=O)O [Example 6, (S)-2-Amino-3-(3-((3-(4-fluorophenoxy)-3-(4-fluorophenyl)azetidin-1-yl)sulfonyl)phenyl)propanoic acid] | 1.2 |
| [2H]c1c([2H])c([2H])c(C2(Oc3cccc(F)c3)CN(S(=O)(=O)c3cccc(C[C@H](N)C(=O)O)c3)C2)c([2H])c1[2H] [Example 28] | 2.3 |
| N[C@@H](Cc1cccc(S(=O)(=O)N2CC(Oc3ccccc3-c3ccccc3Cl)C2)c1)C(=O)O [Example 38] | 34 |
| N[C@@H](Cc1cccc(S(=O)(=O)N2CC(Oc3ccccc3)(C(F)(F)F)C2)c1)C(=O)O [Example 29] | 180 |
| N[C@@H](Cc1cccc(S(=O)(=O)N2CC(Oc3cccc(Cl)c3)(c3ccccc3)C2)c1)C(=O)O [Example 3, (S)-2-Amino-3-(3-((3-(3-chlorophenoxy)-3-phenylazetidin-1-yl)sulfonyl)phenyl)propanoic acid] | 3.1 |
| N[C@@H](Cc1cccc(S(=O)(=O)N2CC(Oc3ccc(Br)cc3)(c3ccccc3)C2)c1)C(=O)O [Example 19] | 3 |
| N[C@@H](Cc1cccc(S(=O)(=O)N2CC(Oc3cccnc3)(c3ccccc3)C2)c1)C(=O)O [Example 22] | 8.7 |
| N[C@@H](Cc1cccc(S(=O)(=O)N2CC(Oc3ccncc3)(c3ccccc3)C2)c1)C(=O)O [Example 23] | 16 |
| N[C@@H](Cc1cccc(S(=O)(=O)N2CC(Oc3ccccc3)(c3ccccc3)C2)c1)C(=O)O [Example 24] | 0.49 |
| CC1(Oc2ccccc2)CN(S(=O)(=O)c2cccc(C[C@H](N)C(=O)O)c2)C1 [Example 30] | 1100 |
| N[C@@H](Cc1cccc(S(=O)(=O)N2CC(Oc3ccc(F)c(F)c3)(c3ccccc3)C2)c1)C(=O)O [Example 10, (S)-2-Amino-3-(3-((3-(3,4-difluorophenoxy)-3-phenylazetidin-1-yl)sulfonyl)phenyl)propanoic acid] | 21 |
| N[C@@H](Cc1cccc(S(=O)(=O)N2CC(Oc3ccc(F)cc3)(c3ccccc3F)C2)c1)C(=O)O [Example 14] | 30 |
| N[C@@H](Cc1cccc(S(=O)(=O)N2CC(Oc3ccccc3F)(c3ccc(F)cc3)C2)c1)C(=O)O [Example 4, (S)-2-Amino-3-(3-((3-(2-fluorophenoxy)-3-(4-fluorophenyl)azetidin-1-yl)sulfonyl)phenyl)propanoic acid] | 2.6 |
| N[C@@H](Cc1cccc(S(=O)(=O)N2CC(Oc3ccccc3F)(c3ccccn3)C2)c1)C(=O)O [Example 34] | 19 |
| N[C@@H](Cc1cccc(S(=O)(=O)N2CC(Oc3ccccc3)(c3ccccn3)C2)c1)C(=O)O [Example 33] | 7.8 |
| N[C@@H](Cc1cccc(S(=O)(=O)N2CC(Oc3ccc(F)c(Cl)c3)(c3ccccc3)C2)c1)C(=O)O [Example 11] | 20 |
| N#Cc1cccc(OC2(c3ccccc3)CN(S(=O)(=O)c3cccc(C[C@H](N)C(=O)O)c3)C2)c1 [Example 20] | 3 |

| SMILES | IC50 [nM] |
| --- | --- |
| N[C@@H](Cc1cccc(S(=O)(=O)N2CC(Oc3cccc(F)c3)(c3ccccc3F)C2)c1)C(=O)O [Example 13] | 3 |
| N[C@@H](Cc1cccc(S(=O)(=O)N2CC(Oc3ccccc3Cl)(c3ccccc3)C2)c1)C(=O)O [Example 7, (S)-2-Amino-3-(3-((3-(2-chlorophenoxy)-3-phenylazetidin-1-yl)sulfonyl)phenyl)propanoic acid] | 4.1 |
| N[C@@H](Cc1cccc(S(=O)(=O)N2CC(OC3CC3)(c3ccccc3)C2)c1)C(=O)O [Example 39] | 140 |
| NC(=O)c1ccc(OC2(c3ccccc3)CN(S(=O)(=O)c3cccc(C[C@H](N)C(=O)O)c3)C2)cc1 [Example 17, (S)-2-Amino-3-(3-((3-(4-carbamoylphenoxy)-3-phenylazetidin-1-yl)sulfonyl)phenyl)propanoic acid hydrochloride] | 1.2 |
| Cc1ccccc1-c1ccccc1C1CN(S(=O)(=O)c2cccc(C[C@H](N)C(=O)O)c2)C1 [Example 37] | 85 |
| N[C@@H](Cc1cccc(S(=O)(=O)N2CC(Oc3ccc(F)cc3)(c3ccccn3)C2)c1)C(=O)O [Example 43] | 8.6 |
| N[C@@H](Cc1cccc(S(=O)(=O)N2CC(Oc3cccc(Br)c3)(c3ccccc3)C2)c1)C(=O)O [Example 8, (S)-2-Amino-3-(3-((3-(3-bromophenoxy)-3-phenylazetidin-1-yl)sulfonyl)phenyl)propanoic acid] | 3 |
| N[C@@H](Cc1cccc(S(=O)(=O)N2CC(Oc3cccc(F)c3)(c3ccccn3)C2)c1)C(=O)O [Example 35] | 17 |
| NC(=O)c1cccc(OC2(c3ccccc3)CN(S(=O)(=O)c3cccc(C[C@H](N)C(=O)O)c3)C2)c1 [Example 15] | 2.9 |
| N[C@@H](Cc1cccc(S(=O)(=O)N2CC(Oc3ccccc3C(F)(F)F)(c3ccccc3)C2)c1)C(=O)O [Example 2] | 15 |
| N[C@@H](Cc1cccc(S(=O)(=O)N2CC(Oc3ccc(C(F)(F)F)cc3)(c3ccccc3)C2)c1)C(=O)O [Example 12] | 9.6 |
| Cc1ccc(OC2(c3ccccc3)CN(S(=O)(=O)c3cccc(C[C@H](N)C(=O)O)c3)C2)cc1 [Example 9] | 4.3 |
| N[C@@H](Cc1cccc(S(=O)(=O)N2CC(Oc3ccccc3)(c3cccc(F)c3)C2)c1)C(=O)O [Example 26] | 2.5 |
| CC(C)(C)CC1(Oc2ccccc2)CN(S(=O)(=O)c2cccc(C[C@H](N)C(=O)O)c2)C1 [Example 25] | 92 |
| N[C@@H](Cc1cccc(S(=O)(=O)N2CC(Oc3ccccc3)(c3ccccc3F)C2)c1)C(=O)O [Example 27] | 2.9 |
| N[C@@H](Cc1cccc(S(=O)(=O)N2CC(Oc3cccc(C(F)(F)F)c3)(c3ccccc3)C2)c1)C(=O)O [Example 21] | 2.5 |
| N[C@@H](Cc1cccc(S(=O)(=O)N2CC(Oc3ccccc3)(c3nccs3)C2)c1)C(=O)O [Example 32] | 11 |
| N[C@@H](Cc1cccc(S(=O)(=O)N2CC(Oc3cccc(F)c3)(c3ccc(F)cc3)C2)c1)C(=O)O [Example 1, (S)-2-Amino-3-(3-((3-(3-fluorophenoxy)-3-(4-fluorophenyl)azetidin-1-yl)sulfonyl)phenyl)propanoic acid] | 1.2 |
| N[C@@H](Cc1cccc(S(=O)(=O)N2CC(c3ccccc3-c3ccccc3)C2)c1)C(=O)O [Example 36] | 78 |
| N[C@@H](Cc1cccc(S(=O)(=O)N2CC(Cc3ccccc3)(c3ccccc3)C2)c1)C(=O)O [Example 16] | 68 |
